This is an account of results in ChEMBL document CHEMBL1130278, “Synthesis and structure-activity relationships of 3,7-dimethyl-1-propargylxanthine derivatives, A2A-selective adenosine receptor antagonists” (J Med Chem, 1997).

SMILES strings stand for the structures.

The target of assay [1] is T1, Adenosine receptor A1 (Rattus norvegicus, UniProt P25099).
T1 sequence (P25099 whole entry): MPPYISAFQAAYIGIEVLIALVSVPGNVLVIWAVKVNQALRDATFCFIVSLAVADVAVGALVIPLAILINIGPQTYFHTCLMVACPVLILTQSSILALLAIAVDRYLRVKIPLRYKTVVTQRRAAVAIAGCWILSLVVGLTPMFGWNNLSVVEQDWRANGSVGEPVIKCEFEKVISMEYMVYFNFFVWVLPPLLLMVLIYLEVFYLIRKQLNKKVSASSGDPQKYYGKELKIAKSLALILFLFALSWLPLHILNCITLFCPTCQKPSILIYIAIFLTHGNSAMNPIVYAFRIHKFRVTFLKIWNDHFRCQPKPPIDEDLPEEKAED
The assay can be described thus: Ability to inhibit binding of [3H]CHA to adenosine A1 receptor in rat brain cortical membranes. The class given is cell membranes, Membrane.

For assay [2], the target named is T2, Adenosine receptor A2a (Rattus norvegicus, UniProt P30543).
T2 sequence (P30543 whole entry): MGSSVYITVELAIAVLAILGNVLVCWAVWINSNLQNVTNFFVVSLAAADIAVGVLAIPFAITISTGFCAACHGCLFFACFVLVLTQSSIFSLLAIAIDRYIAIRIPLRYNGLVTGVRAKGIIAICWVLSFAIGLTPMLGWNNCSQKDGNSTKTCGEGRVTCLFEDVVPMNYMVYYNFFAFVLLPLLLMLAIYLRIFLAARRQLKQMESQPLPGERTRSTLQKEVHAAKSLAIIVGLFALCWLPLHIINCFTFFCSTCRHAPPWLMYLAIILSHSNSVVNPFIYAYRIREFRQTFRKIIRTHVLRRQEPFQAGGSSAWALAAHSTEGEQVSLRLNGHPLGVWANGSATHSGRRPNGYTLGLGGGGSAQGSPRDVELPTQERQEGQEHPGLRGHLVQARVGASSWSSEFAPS
Description: Ability to inhibit binding of [3H]-CGS- 21680 to adenosine A2A receptor in rat brain striatal membranes.
Assay [3] deals with T2, Adenosine receptor A2a. The source holds these as a separate data set.
Description: Ability to inhibit binding of [3H]NECA to Adenosine A2A receptor in rat brain striatal membranes
The target of assay [4] is T1, Adenosine receptor A1. The experiment in a line: Ability to inhibit binding of [3H]R-PIA to Adenosine A1 receptor in rat brain cortical membranes. The class given is cell membranes, Membrane.
Assay [5] concerns the target T3, Adenosine receptor A3 (Rattus norvegicus, UniProt P28647).
T3 sequence (P28647 whole entry): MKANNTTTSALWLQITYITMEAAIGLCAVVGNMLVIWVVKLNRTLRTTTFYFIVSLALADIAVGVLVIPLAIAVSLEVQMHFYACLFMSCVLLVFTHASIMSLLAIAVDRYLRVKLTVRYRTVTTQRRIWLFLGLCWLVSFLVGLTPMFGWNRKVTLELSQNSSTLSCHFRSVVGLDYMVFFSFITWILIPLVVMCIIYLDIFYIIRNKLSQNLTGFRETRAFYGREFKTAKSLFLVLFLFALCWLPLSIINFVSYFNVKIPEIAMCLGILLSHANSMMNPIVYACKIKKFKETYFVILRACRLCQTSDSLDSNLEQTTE
The assay can be described thus: Inhibitory activity against rat adenosine A3 receptor; inactive up to 10 uM concentration; IA = Inactive.

In assay [6] the target is T4, Adenosine receptor A1 (Rattus norvegicus) (UniProt P25099).
T4 sequence (whole entry): T1 sequence (P25099 whole entry)
The experiment in a line: Inhibition of [3H]CHA binding to Adenosine A1 receptor of rat brain cortical membranes. The class given is cell membranes. As to conditions: Membrane, concentration not given here; call rule not given here.

The target in assay [7] is T5, Adenosine receptor A3 (Homo sapiens, UniProt P0DMS8).
T5 sequence (P0DMS8 whole entry): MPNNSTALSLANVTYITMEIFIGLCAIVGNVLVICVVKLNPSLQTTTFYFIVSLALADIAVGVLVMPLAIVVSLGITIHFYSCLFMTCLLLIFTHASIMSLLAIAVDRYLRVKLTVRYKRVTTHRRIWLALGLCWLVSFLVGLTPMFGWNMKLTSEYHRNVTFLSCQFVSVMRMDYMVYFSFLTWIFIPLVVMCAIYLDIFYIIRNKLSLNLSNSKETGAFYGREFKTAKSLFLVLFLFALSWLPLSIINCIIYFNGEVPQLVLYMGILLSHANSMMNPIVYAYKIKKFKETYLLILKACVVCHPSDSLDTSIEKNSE
The assay can be described thus: Binding affinity for human Adenosine A3 receptor at 10 uM; IA = Inactive.

Assay [8] concerns the target T6, Adenosine receptor A2b (Homo sapiens, UniProt P29275).
T6 sequence (P29275 whole entry): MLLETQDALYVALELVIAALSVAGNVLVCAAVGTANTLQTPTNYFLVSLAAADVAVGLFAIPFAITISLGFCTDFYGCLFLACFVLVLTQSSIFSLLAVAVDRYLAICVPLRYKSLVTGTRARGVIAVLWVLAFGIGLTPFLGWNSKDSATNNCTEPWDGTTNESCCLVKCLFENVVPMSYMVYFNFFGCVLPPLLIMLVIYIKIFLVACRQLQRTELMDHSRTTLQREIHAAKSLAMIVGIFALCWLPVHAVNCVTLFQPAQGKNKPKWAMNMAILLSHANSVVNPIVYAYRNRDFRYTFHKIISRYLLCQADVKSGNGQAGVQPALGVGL
The assay can be described thus: Binding affinity for human Adenosine A2B receptor at 10 uM; IA = Inactive.

What is called Ki is a dissociation constant, usually derived from enzyme kinetics or from competition with a known ligand. A high value points to weaker binding. Consider `C#CCn1c(=O)c2c(nc(/C=C/c3ccsc3)n2C)n(C)c1=O`, for which the Ki was 0.75 µM in assay [1] and 0.024 µM in assay [2].
On the same counts, the results for `COc1ccc(/C=C/c2nc3c(c(=O)n(C)c(=O)n3C)n2C)cc1OC` are 9.6 µM and 0.018 µM.
For `C#CCn1c(=O)c2[nH]c(/C=C/c3ccc4c(c3)OCO4)nc2n(C)c1=O`, the figures for the inhibition constant (Ki) in assay [1] and in assay [2] were 0.84 µM and 0.17 µM, respectively.
With `C#CCn1c(=O)[nH]c2[nH]c(/C=C/c3ccccc3)nc2c1=O`, the Ki in assay [1] worked out at 1.3 µM; in assay [3], 1.9 µM; in assay [2] it was 0.31 µM; in assay [4] it was 2.1 µM.
Take `C#CCn1c(=O)c2[nH]c(/C=C/c3cccc(Cl)c3)nc2n(C)c1=O`: the Ki turned out to be 0.41 µM in assay [3] and 0.25 µM in assay [4].
As to `C#CCn1c(=O)c2c(nc(/C=C/c3cccc(Cl)c3)n2CC#C)n(C)c1=O`, the Ki in assay [1] was found to be 0.2 µM; in assay [2], 0.061 µM.
With `CCCn1c(=O)c2c(nc(/C=C/c3cccc(Cl)c3)n2C)n(C)c1=O`, the Ki in assay [1] was determined as 0.54 µM; in assay [2], 0.031 µM.
On the same counts, the results for `C=CCn1c(=O)c2c(nc(/C=C/c3ccccc3)n2C)n(C)c1=O` are 9.2 µM and 0.063 µM.
On the same counts, the results for `C#CCn1c(-c2ccccc2)nc2c1c(=O)n(C)c(=O)n2CC(C)C` are 2.8 µM and 3.5 µM.
One may read the inhibition as the change of the read-out against control, counted positive when it falls. For `Cn1c(=O)c2c(nc(/C=C/c3cccc(Cl)c3)n2C)n(C)c1=O`, the Ki result in assay [5] is given as “Not Active”. The inhibition in assay [6] was determined as 17%.
As to `C#CCn1c(=O)c2[nH]cnc2n(C)c1=O`, the Ki in assay [3] worked out at 4.8 µM.
Take `C#CCn1c(=O)c2c(nc(/C=C/c3ccc4c(c3)OCO4)n2C)n(C)c1=O`: the Ki in assay [1] was 1.5 µM; in assay [2], 0.035 µM.
Turning to `CC(C)Cn1c(=O)n(C)c(=O)c2c1nc(-c1ccccc1)n2C`, the Ki in assay [1] was found to be 4.4 µM; in assay [2], 14 µM.
For `C#CCn1c(=O)c2c(nc(-c3cccs3)n2C)n(C)c1=O`, the Ki in assay [1] was found to be 0.95 µM; in assay [2], 1.8 µM.
On to `C#CCn1c(=O)c2c(nc(/C=C/c3ccccc3)n2C)n(C)c1=O`, for which the Ki in assay [1] was found to be 1.1 µM; in assay [3], 0.14 µM; in assay [2], 0.027 µM; in assay [4], 2.7 µM.
In the case of `C#CCn1c(=O)c2[nH]cnc2n(Cc2ccccc2)c1=O`, the figures for the Ki in assay [1] and in assay [2] were 0.86 µM and 0.88 µM, respectively.
On the same counts, the results for `C#CCn1c(=O)c2[nH]c(/C=C/c3cccc(Cl)c3)nc2n(CC(C)C)c1=O` are 0.083 µM and 0.046 µM.
On the same counts, the results for `C#CCn1c(=O)c2c(nc(/C=C/c3cccc(Cl)c3)n2C)n(CCC)c1=O` are 0.102 µM and 0.0051 µM.
On the same counts, the results for `C#CCn1c(=O)c2c(ncn2C)n(C)c1=O` are 12 µM and 8.6 µM.
`C#CCn1c(=O)c2c(nc(/C=C/c3cccc(Br)c3)n2C)n(C)c1=O`: the Ki was 1.2 µM in assay [1], “Not Active” in assay [7], 0.0082 µM in assay [2] and “Not Active” in assay [8].
Take `C#CCn1c(=O)c2c(nc(/C=C/c3ccc(OC)c(OC)c3)n2C)n(C)c1=O`: the Ki stood at 2.5 µM in assay [1] and 0.015 µM in assay [2].
On to `C#CCn1c(=O)c2c(nc(/C=C/c3cccc(Cl)c3)n2C)n(C)c1=O`, for which the Ki turned out to be 1.3 µM in assay [1], 0.047 µM in assay [3], 0.013 µM in assay [2] and 2.5 µM in assay [4].
As to `C#CCn1c(=O)c2c(nc(-c3ccccc3)n2C)n(C)c1=O`, the results for the Ki in assay [1], in assay [3] and in assay [2] were 3.2 µM, 6.4 µM and 3.3 µM, respectively.
On to `C#CCn1c(=O)c2c(nc(C3CCCCC3)n2C)n(C)c1=O`, for which the Ki in assay [1] was found to be 2.8 µM; in assay [2], 4.5 µM.
Take `Cn1c(=O)c2c(nc(-c3ccccc3)n2C)n(C)c1=O`: the Ki stood at 33 µM in assay [1], 25 µM in assay [3] and 19 µM in assay [2].
With `C#CCn1c(=O)c2c(nc(/C=C/c3ccco3)n2C)n(C)c1=O`, the values for the Ki in assay [1] and in assay [2] were 1.9 µM and 0.25 µM, respectively.
For the compound `C#CCn1c(=O)c2c(nc(/C=C/c3cccc(Cl)c3)n2C)n(Cc2ccccc2)c1=O`, the figures for the Ki in assay [1] and in assay [2] were 2.3 µM and 0.068 µM, respectively.
`CCCn1c(=O)c2c(nc(/C=C/c3ccc(OC)c(OC)c3)n2C)n(CCC)c1=O` came in with a Ki in assay [1] of 0.26 µM.
For `C#CCn1c(=O)c2c(nc(/C=C/c3cccs3)n2C)n(C)c1=O`, the Ki in assay [1] is 4.1 µM; in assay [2], 0.34 µM.
Regarding `C#CCn1c(=O)[nH]c2nc(-c3cccs3)[nH]c2c1=O`, the Ki in assay [1] turned out to be 0.18 µM; in assay [3] it was 5.1 µM; in assay [2] it was 0.56 µM; in assay [4] it was 0.12 µM.
As for `C#CCn1c(=O)c2c(nc(/C=C/c3cccc(Cl)c3)n2C)n(CC(C)C)c1=O`, the Ki in assay [1] was 0.24 µM; in assay [2] it was 0.015 µM.
